Structures can show the parent of a compound that is named as a salt.

Series [1] has as its system utrophin A mRNA. Nature of the series: utrophin A mRNA upregulation in C2C12 muscle cells (TaqMan qPCR). The format is cell-based. The following applies: either in serum-containing or serum-free media, FIG. 4. On the procedure: In a further experiment, the activity of kawain, equilin and nabumetone were evaluated in C2C12 muscle cells for upregulation of utrophin A mRNA (FIG. 3). C2C12 muscle cells were treated with optimal doses of compounds (based on previous dose-response data) for 24 hours, either in the presence of serum or in the absence of serum (following 24 hours of serum starvation). Trichostatin A and heregulin were used as positive controls for utrophin upregulation in the presence (trichostatin A) or absence (heregulin) of serum. Utrophin A mRNA was measured using a TaqMan qPCR assay and normalised to 18S rRNA. Data are presented as fold-changes in utrophin A mRNA compared to DMS O-only controls (compounds) or media-only controls (trichostatin A and heregulin).
Additional experiments were performed in C2C12 cells. […] C2C12 cells were treated with Prestwick compounds A, J, L and S plus TSA and heregulin (HRG) as positive controls.

Series [2] deals with utrophin promoter. As to the kind of experiment: utrophin promoter-luciferase reporter assay, 96-well format. The format is cell-based. The settings on record: for maximal fold induction: read-out: Max. fold change; for dose-dependent activation of the utrophin promoter: range of concentrations, 96-well plate format, FIGS. 1 and 2. On the procedure:
(§1) The ability of test compounds to upregulate activity of the utrophin promoter was determined using the muscle cell line C2C12utrn, which contains the utrophin gene promoter linked to the protein-encoding sequence for luciferase. Using these cells, a chemical library was screened for compounds that activate the utrophin promoter. Light production was the readout.
In some cases compounds were tested at a range of concentrations on test cells in a 96-well plate format.
(In general: Reporter assays use an easily measured gene product as a stand-in for the process of interest.)

In series [3] the test system is utrophin promoter. Nature of the series: utrophin promoter-luciferase reporter screen, 384-well format. The following applies: C2C12utrn cells; for maximal fold induction: 24 h, read-out: Max. fold change. The format is cell-based. On the procedure:
as §1
In the first screening, 384-well plates were used to grow C2C12 […] cells and expose to test compounds. Cells were exposed to test compounds at a single concentration for 24 hours, wherein 19 compounds of 1120 tested produced an increase of at least 20% of the activity of the luciferase reporter.
Subsequently, the 19 compounds were rescreened at 15 different concentrations.

Series [4] concerns mice. Nature of the series: in vivo treatment of mice: muscle weights and muscle function. An excerpt:
In vivo experiments were perfomed in mice by treating with nabumetone. […] Soleus, gastrocnemius (gastroc), tibialis anterior (TA) and quadriceps (quads) were bigger in treated mice. […] There was no difference in whole body weight between treatment groups.

The mark [5] stands for this setting: 96-well format, C2C12utrn cells, luciferase readout.

For `CC(/C=C/C(=O)NO)=C\[C@@H](C)C(=O)c1ccc(N(C)C)cc1` [TSA, Trichostatin A], in series [1], the “levels of endogenous utrophin A mRNA” value is reported as “increased”.
`O=c1cc(-c2ccccc2)oc2cc(O)cc(O)c12` [chrysin, 5,7-dihydroxy-2-phenyl-4H-chromen-4-one]: the maximal fold induction stood at 3.4 in series [2] (setting [5]) and 1.5 in series [3] (luciferase readout). For the same compound, the “dose-dependent activation of the utrophin promoter” value in series [2] is recorded as “dose-dependent activation”.
Take heregulin: the “levels of endogenous utrophin A mRNA” value in series [1] is “increased”.
As for `O=C(/C=C/C=C/c1ccc2c(c1)OCO2)N1CCCCC1` [piperine, 1-[5-(1,3-benzodioxol-5-yl)-1-oxo-2,4-pentadienyl]piperidine], the maximal fold induction stood at 2.3 in series [2] (setting [5]) and 1.59 in series [3] (luciferase readout). For the same compound, the “dose-dependent activation of the utrophin promoter” value in series [2] is reported as “dose-dependent activation”.
For the compound `O=c1cc(-c2ccc(O)cc2)oc2cc(O)cc(O)c12` [apigenin, 5,7-dihydroxy-2-(4-hydroxyphenyl)-4H-1-benzopyran-4-one], the maximal fold induction in series [2] (setting [5]) came out at 3.5; in series [3] (luciferase readout), 1.54. Further, the “dose-dependent activation of the utrophin promoter” value in series [2] is “dose-dependent activation”.
The corresponding values for `C#CCN(C)CCCOc1ccc(Cl)cc1Cl` [clorgyline HCl, N-[3-(2,4-dichlorophenoxy)propyl]-N-methylprop-2-yn-1-amine] are 1.9, 1.16 and “dose-dependent activation”.
Take `Nc1nc2ccc(OC(F)(F)F)cc2s1` [riluzole HCl, 6-(trifluoromethoxy)benzothiazol-2-amine]: the maximal fold induction came out at 2.2 in series [2] (setting [5]) and 1.56 in series [3] (luciferase readout). In addition, the “dose-dependent activation of the utrophin promoter” value in series [2] is “dose-dependent activation”.
The corresponding values for `Nc1ccc(/N=N/c2ccccc2)c(N)n1` [phenazopyridine HCl, 3-phenyldiazenylpyridine-2,6-diamine] are 2.6, 1.62 and “dose-dependent activation”.
The corresponding values for `C[C@]12CC[C@H]3C(=CCc4cc(O)ccc43)[C@@H]1CCC2=O` [equilin, 3-hydroxy-13-methyl-9,11,12,14,15,16-hexahydro-6H-cylcopenta(a)phenanthren-17-one] are 3.4, 1.6 and “dose-dependent activation”.
The like results for `COc1ccc([C@@H]2CC(=O)c3c(O)cc(O)cc3O2)cc1O` [hesperetin, (S)-2,3-dihydro-5,7-dihydroxy-2-(3-hydroxy-4-methoxyphenyl)-4H-1-benzopyran-4-one] were, in that order, 2.9, 1.94 and “dose-dependent activation”.
Take `Cc1oncc1C(=O)Nc1ccc(C(F)(F)F)cc1` [leflunomide, 5-methyl-N-[4-(trifluoromethyl)phenyl]isoxazole-4-carboxamide]: the figures for the maximal fold induction in series [2] (setting [5]) and in series [3] (luciferase readout) were 2.9 and 1.38, respectively. In addition, the “dose-dependent activation of the utrophin promoter” value in series [2] is on record as “dose-dependent activation”.
For `COc1ccc2cc(CCC(C)=O)ccc2c1` [nabumetone, 4-(6-methoxy-2-naphthyl)-2-butanone], in series [2] (setting [5]), the maximal fold induction was found to be 2.5. In addition, the “dose-dependent activation of the utrophin promoter” value in series [2] is given as “dose-dependent activation”. The “whole body weight between treatment groups” value in series [4] (mice, FIG. 5) is “no difference”. Moreover, the “muscle weight, EDL” value in series [4] (treated mice, FIG. 5) is given as “not significantly bigger”. In addition, in series [4] (treated mice, FIG. 5, p<0.05), the “muscle weight, gastrocnemius (gastroc)” value is on record as “bigger”; the “muscle weight, quadriceps (quads)” value is reported as “bigger”; the “muscle weight, soleus” value is “bigger”; the “muscle weight, tibialis anterior (TA)” value is recorded as “bigger”. Further, the force generating capacity result in series [4] (treated muscles, FIG. 6) is given as “trend towards increased”. Further, the “peak specific twitch force” value in series [4] (treated muscles, FIG. 6, p<0.05) is listed as “significantly increased”. Moreover, the “force drop on eccentric contraction” value in series [4] (treated muscles, FIG. 6, trend) was “decreased”. Besides, the maximal fold induction in series [3] (luciferase readout) amounted to 1.56.
On to `c1ccc2[nH]c(-c3cscn3)nc2c1` [tiabendazole, 2-(1,3-thiazol-4-yl)-1H-benzoimidazole], for which the maximal fold induction was determined as 2.1 in series [2] (setting [5]) and 1.86 in series [3] (luciferase readout). Moreover, in series [2], the “dose-dependent activation of the utrophin promoter” value was “dose-dependent activation”.
Consider `COC1=CC(=O)O[C@@H](/C=C/c2ccccc2)C1` [kawain, [R-(E)]-5,6-dihydro-4-methoxy-6-(2-phenylethenyl)-2H-pyran-2-one], for which the Optimal dose was 20 µM in series [2] (96-well format, C2C12utrn cells) and 10 µM in series [3]. Further, the Max. fold change in series [2] (setting [5]) was determined as 2.5; in series [3] (luciferase readout), 1.37. The “dose-dependent activation of the utrophin promoter” value in series [2] was “dose-dependent activation”.
As to `Oc1ccc(/C=C/c2cc(O)cc(O)c2)cc1` [resveratrol, trans-3,4′,5-trihydroxystilbene], the maximal fold induction was found to be 2.2 in series [2] (setting [5]) and 1.62 in series [3] (luciferase readout). The “dose-dependent activation of the utrophin promoter” value in series [2] is “dose-dependent activation”.
